Experimental findings from US20230002336A1, “MrgprX2 Antagonists and Uses Thereof” (Dermira, Inc., priority 2019, published 2023) are described below.

This assay concerns the target T1, Human MrgprX2 (Homo sapiens, UniProt Q96LB1).
T1 construct: expressed in transfected cells; host or cells: recombinant cells
T1 sequence (Q96LB1 1-330): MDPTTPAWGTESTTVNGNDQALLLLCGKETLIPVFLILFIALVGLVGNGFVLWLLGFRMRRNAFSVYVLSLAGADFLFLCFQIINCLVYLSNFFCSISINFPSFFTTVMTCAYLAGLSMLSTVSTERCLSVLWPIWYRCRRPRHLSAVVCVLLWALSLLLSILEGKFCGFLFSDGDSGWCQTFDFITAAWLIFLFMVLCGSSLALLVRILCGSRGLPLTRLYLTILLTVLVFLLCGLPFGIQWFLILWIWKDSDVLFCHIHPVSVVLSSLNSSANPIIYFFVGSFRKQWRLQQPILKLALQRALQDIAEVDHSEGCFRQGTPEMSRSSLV
In words: FLIPR intracellular calcium mobilization antagonist assay in recombinant hMrgpMRGPRX2 expressing cells. The class given is cell-based. The conditions noted are these: antagonist activity, read-out: Human MrgprX2 Antagonist pIC50 (converted). An excerpt:
[Worded in the source for another species; this species is reported under the same test.] The assays used to determine potencies are functional read-out looking at intracellular calcium mobilization using the FLIPR™ technology. In these FLIPR assays, we test the identified compounds using recombinant cellular systems expressing mouse MrgprB2, mouse MrgprA1, gerbil MrgpMRGPRX2 orthologue, Chinese hamster MrgpMRGPRX2 orthologue and cynomolgus monkey MrgpMRGPRX2 orthologue, respectively for orthologue activity.
For orientation: Calcium flux is commonly read through the fluorescence of an indicator in the cells.
Regarding `CC(C)C(=O)Nc1nnc(Cc2cccc(F)c2)s1` [Example E01, N-[5-[(3-fluorophenyl)methyl]-1,3,4-thiadiazol-2-yl]-2-methyl-propanamide], the IC50 was 2510 nM.
Consider `CN(CC(C)(O)C(F)(F)F)C(=O)Nc1nnc(Cc2cccc(F)c2)s1` (single isomer, unassigned) [Example E51, 3-[5-[(3-fluorophenyl)methyl]-1,3,4-thiadiazol-2-yl]-1-methyl-1-(3,3,3-trifluoro-2-hydroxy-2-methyl-propyl)urea], for which the IC50 was 10000 nM.
With `CN(CC1(O)CC1)C(=O)Nc1nnc(Cc2cc(F)cc(F)c2)s1` [Example E31], the IC50 is 1260 nM.
The result for `CN(CC1CCOC1)C(=O)Nc1nnc(Cc2cc(F)cc(F)c2)s1` (stereo not drawn) [Example E27] reads 6310 nM; that for `CN(C[C@@H](O)C(F)(F)F)C(=O)Nc1nnc(Cc2cc(Cl)cc(Cl)c2)s1` [Example E45], 288 nM; that for `CN(CC1CCCO1)C(=O)Nc1nnc(Cc2cc(F)cc(F)c2)s1` (stereo not drawn) [Example E26], 1260 nM.
On to `C[C@H](O)CN(C)C(=O)Nc1nnc(Cc2cc(F)cc(F)c2)s1` [Example E14], for which the IC50 is 2510 nM.
With `CN(CC(C)(O)C(F)(F)F)C(=O)Nc1nnc(Cc2cc(F)cc(F)c2)s1` (stereo not drawn) [Example E33] the figure was 15.8 nM.
In the case of `CN(C[C@@](C)(O)C(F)(F)F)C(=O)Nc1nnc(Cc2cc(F)cc(F)c2)s1` [Example E55], the IC50 is 10 nM.
Consider `CCN(C[C@@H](O)C(F)(F)F)C(=O)Nc1nnc(Cc2cccc(Cl)c2)s1` [Example E37], for which the IC50 is 158 nM.
With `CN(CC(C)(O)C(F)(F)F)C(=O)Nc1nnc(Cc2cccc(F)c2)s1` (single isomer, unassigned) [Example E50, 3-[5-[(3-fluorophenyl)methyl]-1,3,4-thiadiazol-2-yl]-1-methyl-1-(3,3,3-trifluoro-2-hydroxy-2-methyl-propyl)urea] the figure was 295 nM.
The result for `CCN(CC(C)(C)O)C(=O)Nc1nnc(Cc2cc(F)cc(Cl)c2)s1` [Example E41] reads 16.6 nM.
With `CN(CC(C)(O)C(F)(F)F)C(=O)Nc1nnc(Cc2cccc(F)c2)s1` (stereo not drawn) [Example E40, 3-[5-[(3-fluorophenyl)methyl]-1,3,4-thiadiazol-2-yl]-1-methyl-1-(3,3,3-trifluoro-2-hydroxy-2-methyl-propyl)urea] the figure was 316 nM; with `CCN(C[C@H](C)O)C(=O)Nc1nnc(C(C)(C)c2cc(F)cc(F)c2)s1` [Example E59, 3-[5-[1-(3,5-difluorophenyl)-1-methyl-ethyl]-1,3,4-thiadiazol-2-yl]-1-ethyl-1-[(2S)-2-hydroxypropyl]urea], 2510 nM.
As to `CC(C)C(=O)Nc1nnc(Cc2ccc(F)c(F)c2)s1` [Example E06], the IC50 is 1580 nM.
With `CN(CC(C)(C)O)C(=O)Nc1nnc(Cc2cc(F)cc(F)c2)s1` [Example E20], the IC50 is 200 nM.
Consider `CCN(C[C@H](C)O)C(=O)Nc1nnc(Cc2ccc(F)c(Cl)c2)s1` [Example E35], for which the IC50 was 794 nM.
The result for `CN(C[C@@](C)(O)C(F)(F)F)C(=O)Nc1nnc(Cc2cc(F)cc(Cl)c2)s1` [Example E56] reads 16.2 nM.
Take `O=C(Nc1nnc(Cc2cc(F)cc(F)c2)s1)N1CC[C@H](O)C1` [Example E28]: the IC50 was 5010 nM.
The result for `C[C@@H](O)CN(C)C(=O)Nc1nnc(Cc2cc(F)cc(F)c2)s1` [Example E15] reads 3980 nM; that for `CCN(CC(C)(C)O)C(=O)Nc1nnc(Cc2cc(F)cc(F)c2)s1` [Example E38], 39.8 nM; that for `O=C(Nc1nnc(Cc2cc(F)cc(F)c2)s1)N1CCCC1` [Example E25], 7940 nM.
The result for `O=C(Nc1nnc(Cc2cc(F)cc(F)c2)s1)N1CCC[C@@H]1CO` [Example E16] reads 2000 nM; that for `CCN(CC(C)(C)O)C(=O)Nc1nnc(Cc2cccc(F)c2)s1` [Example E39], 724 nM; that for `CN(C[C@@H](O)C(F)(F)F)C(=O)Nc1nnc(Cc2cc(F)cc(Cl)c2)s1` [Example E47], 135 nM.
Consider `CCN(C[C@H](C)O)C(=O)Nc1nnc(Cc2cc(F)cc(Cl)c2)s1` [Example E24], for which the IC50 is 100 nM.
Consider `CCN(CC(C)(O)C(F)(F)F)C(=O)Nc1nnc(Cc2cccc(F)c2)s1` (single isomer, unassigned) [Example E52, 1-ethyl-3-[5-[(3-fluorophenyl)methyl]-1,3,4-thiadiazol-2-yl]-1-(3,3,3-trifluoro-2-hydroxy-2-methyl-propyl)urea], for which the IC50 was 50.1 nM.
The result for `CCN(C[C@H](C)O)C(=O)Nc1nnc(Cc2cccc(F)c2F)s1` [Example E09, 3-[5-[(2,3-difluorophenyl)methyl]-1,3,4-thiadiazol-2-yl]-1-ethyl-1-[(2S)-2-hydroxypropyl]urea] reads 1580 nM.
With `CCN(CC(C)(O)C(F)(F)F)C(=O)Nc1nnc(Cc2cccc(F)c2)s1` (stereo not drawn) [Example E42, 1-ethyl-3-[5-[(3-fluorophenyl)methyl]-1,3,4-thiadiazol-2-yl]-1-(3,3,3-trifluoro-2-hydroxy-2-methyl-propyl)urea] the figure was 47.9 nM; with `Cc1cc(F)cc(Cc2nnc(NC(=O)N(C)C[C@@](C)(O)C(F)(F)F)s2)c1` [Example E57], 85.1 nM; with `CCN(C[C@@H](O)C(F)(F)F)C(=O)Nc1nnc(Cc2cc(Cl)cc(Cl)c2)s1` [Example E49], 38 nM.
Regarding `CC(C)C(=O)Nc1nnc(Cc2ccc(F)cc2)s1` [Example E02], the IC50 is 7940 nM.
Consider `CCN(C[C@H](C)O)C(=O)Nc1nnc(Cc2cc(Cl)cc(Cl)c2)s1` [Example E32], for which the IC50 is 158 nM.
Consider `CC1(C(=O)Nc2nnc(Cc3cc(F)cc(F)c3)s2)CCOCC1` [Example E07], for which the IC50 was 1000 nM.
The result for `CCN(C[C@H](C)O)C(=O)Nc1nnc(Cc2cccc(C)c2)s1` [Example E21] reads 7940 nM; that for `CC(C)C(=O)Nc1nnc(Cc2cc(F)cc(F)c2)s1` [Example E03], 251 nM; that for `CN(CC(C)(C)O)C(=O)Nc1nnc(Cc2cc(Cl)cc(Cl)c2)s1` [Example E44], 162 nM.
As for `CC1(C(=O)Nc2nnc(Cc3cc(F)cc(F)c3)s2)CCOC1` (stereo not drawn) [Example E08], the IC50 is 2000 nM.
As to `CCN(CC1(O)CC1)C(=O)Nc1nnc(Cc2cc(F)cc(F)c2)s1` [Example E30], the IC50 is 79.4 nM.
The result for `CC(CO)N(C)C(=O)Nc1nnc(Cc2cc(F)cc(F)c2)s1` (stereo not drawn) [Example E17] reads 3980 nM; that for `O=C(Nc1nnc(Cc2cc(F)cc(F)c2)s1)N1CCC(C(F)(F)F)C1` (stereo not drawn) [Example E29], 631 nM; that for `CCN(C[C@@H](O)C(F)(F)F)C(=O)Nc1nnc(Cc2cc(F)cc(Cl)c2)s1` [Example E48], 14.1 nM.
The result for `CCN(CC(C)(O)C(F)(F)F)C(=O)Nc1nnc(Cc2cccc(F)c2)s1` (single isomer, unassigned) [Example E53, 1-ethyl-3-[5-[(3-fluorophenyl)methyl]-1,3,4-thiadiazol-2-yl]-1-(3,3,3-trifluoro-2-hydroxy-2-methyl-propyl)urea] reads 3390 nM.
Regarding `CCN(C[C@@H](O)C(F)(F)F)C(=O)Nc1nnc(Cc2cc(F)cc(F)c2)s1` [Example E23], the IC50 is 7.94 nM.
On to `CCN(C[C@H](C)O)C(=O)Nc1nnc(Cc2cc(Cl)ccc2F)s1` [Example E34], for which the IC50 is 3980 nM.
In the case of `CN(C[C@](C)(O)C(F)(F)F)C(=O)Nc1nnc(Cc2cc(F)cc(F)c2)s1` [Example E54, 3-[5-[(3,5-difluorophenyl)methyl]-1,3,4-thiadiazol-2-yl]-1-methyl-1-[(2S)-3,3,3-trifluoro-2-hydroxy-2-methyl-propyl]urea], the IC50 is 126 nM.
As to `CCN(C[C@@H](O)C(F)(F)F)C(=O)Nc1nnc(Cc2cccc(F)c2)s1` [Example E36], the IC50 was 200 nM.
On to `CC(C)C(=O)Nc1nnc(Cc2cccc(F)c2F)s1` [Example E04], for which the IC50 was 1260 nM.
With `CC(C)NC(=O)c1nnc(Cc2cc(F)cc(F)c2)s1` [Example E58, 5-[(3,5-difluorophenyl)methyl]-N-isopropyl-1,3,4-thiadiazole-2-carboxamide] the figure was 3160 nM.
The result for `CCN(C[C@H](C)O)C(=O)Nc1nnc(Cc2cc(F)cc(F)c2)s1` [Example E10] reads 251 nM; that for `CCN(C[C@H](C)O)C(=O)Nc1nnc(Cc2ccc(F)c(F)c2)s1` [Example E13], 2000 nM.
With `CCN(C[C@@H](O)C(F)(F)F)C(=O)Nc1nnc(Cc2cc(C)cc(F)c2)s1` [Example E43] the figure was 69.2 nM.
`CCN(CC(C)(C)O)C(=O)Nc1nnc(Cc2cc(C)cc(F)c2)s1` [Example E46]: the IC50 was 372 nM.
Take `CCN(C[C@H](C)O)C(=O)Nc1nnc(Cc2cccc(F)c2)s1` [Example E11]: the IC50 is 3160 nM.
Turning to `CC(C)C(=O)Nc1nnc(Cc2cc(F)ccc2F)s1` [Example E05], the IC50 is 2510 nM.
With `CCN(C[C@H](C)O)C(=O)Nc1nnc(Cc2cc(C)cc(F)c2)s1` [Example E22] the figure was 794 nM; with `CCN(C[C@H](C)O)C(=O)Nc1nnc(Cc2cc(F)ccc2F)s1` [Example E12], 2000 nM.
